{"source": "patent US7632858B2", "about": "(priority 2002, dated 2009)", "key": {"AR": {"biological_target": "T1, AR (Rattus norvegicus, UniProt P15207)", "T1 sequence (P15207 1-902)": "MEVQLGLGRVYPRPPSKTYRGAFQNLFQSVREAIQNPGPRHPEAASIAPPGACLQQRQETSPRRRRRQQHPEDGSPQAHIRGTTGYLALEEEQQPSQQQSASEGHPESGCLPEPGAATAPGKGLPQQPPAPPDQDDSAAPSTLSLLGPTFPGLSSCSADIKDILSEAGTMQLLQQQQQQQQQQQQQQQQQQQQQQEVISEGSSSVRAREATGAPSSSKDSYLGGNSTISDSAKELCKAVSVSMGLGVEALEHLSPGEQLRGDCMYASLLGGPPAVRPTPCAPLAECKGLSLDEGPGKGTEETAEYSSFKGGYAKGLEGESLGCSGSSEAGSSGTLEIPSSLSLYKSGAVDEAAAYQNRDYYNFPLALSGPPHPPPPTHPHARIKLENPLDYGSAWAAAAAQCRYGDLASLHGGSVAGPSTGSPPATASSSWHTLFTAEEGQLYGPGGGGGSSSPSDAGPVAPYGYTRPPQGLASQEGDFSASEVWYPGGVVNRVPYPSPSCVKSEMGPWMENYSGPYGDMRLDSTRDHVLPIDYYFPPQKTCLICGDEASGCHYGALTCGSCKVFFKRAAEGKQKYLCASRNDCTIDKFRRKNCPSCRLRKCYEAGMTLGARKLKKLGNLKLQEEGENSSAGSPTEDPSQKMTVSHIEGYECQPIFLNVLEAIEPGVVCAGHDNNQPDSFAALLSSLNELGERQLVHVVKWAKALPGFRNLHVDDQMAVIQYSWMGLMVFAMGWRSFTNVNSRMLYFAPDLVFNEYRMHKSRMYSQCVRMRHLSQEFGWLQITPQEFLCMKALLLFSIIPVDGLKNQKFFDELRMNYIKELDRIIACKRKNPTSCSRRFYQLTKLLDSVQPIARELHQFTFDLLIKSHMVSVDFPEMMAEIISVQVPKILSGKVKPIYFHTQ", "from_the_text": "The activity of compounds of the present invention as AR agonists was investigated in an immature male rat model, a recognized test of anabolic effects in muscle and sustaining effects in sex organs for a given compound, as described in L. G. Hershberger et al., Proc. Soc. […] Biol. Med., 83, 175 (1953); B. L. Beyler et al, “Methods for evaluating anabolic and catabolic agents in laboratory animals”, J. Amer. Med. Women's Ass., 23, 708 (1968); H. Fukuda et al., “Investigations of the levator ani muscle as an anabolic steroid assay”, Nago Dai. […] Nem. 14, 84 (1966) the disclosures of which are herein incorporated by reference.\nThe basis of this assay lies in the well-defined action of androgenic agents on the maintenance and growth of muscle tissues and sexual accessory organs in animals and man. […] J. Anat. […] Ital. Biol. Sper. […] II. […] Ital. Biol. Sper. 42, 1600 (1966); A. Boris et al., Steroids 15, 61 (1970). As described above, the effects of androgens on maintenance of male sexual accessory organs, such as the prostate and seminal vesicles, is well described. Castration results in rapid involution and atrophy of the prostate and seminal vesicles. This effect can be reversed by exogenous addition of androgens. […]"}, "wild type AR": {"biological_target": "wild type AR", "settings": "read-out: Kd for [3H]-DHT; MDA 453 cells, Scatchard analysis", "protocol": "For the whole-cell binding assay, human LNCaP cells (T877A mutant AR) or MDA 453 (wild type AR) in 96-well microtiter plates containing RPMI 1640 or DMEM supplemented with 10% charcoal stripped CA-FBS (Cocaleco Biologicals) respectively, were incubated at 37° C. to remove any endogenous ligand that might be complexed with the receptor in the cells.\nFor the saturation analysis, the difference between the total binding and the non-specific binding, was defined as specific binding. […] See e.g. D. Rodbard, Mathematics and statistics of ligand assays: an illustrated guide: In: J. Langon and J. J. Clapp, eds., Ligand Assay, Masson Publishing U.S.A., Inc., New York, pp. 45-99, (1981), the disclosure of which is herein incorporated by reference.\nTwo replicates were used for each sample."}}, "data": [{"compound": "CCC(=O)O[C@H]1CC[C@H]2[C@@H]3CCC4=CC(=O)CC[C@]4(C)[C@H]3CC[C@]12C", "note": "[TP, testosterone propionate]", "values": [{"measurement": "potency relative to free T", "setting": "AR; TP versus free T", "result": "10-30 fold"}, {"measurement": "EC50 (increase in organ weight)", "setting": "AR; immature castrated rats", "result": "~0.03", "unit": "mg"}]}, {"compound": "tritiated dihydrotestosterone [[^3H]-DHT]", "values": [{"measurement": "Kd", "setting": "wild type AR", "result": 0.7, "unit": "nM"}]}]}
